This note sets out measurements from patent publication US20100093642A1, “NOVEL POLYPEPTIDES” (priority 2006, published 2010).

No end group written: not given here.

One assay relates to Penicillum rogveforti. The experiment in a line: Antifungal MIC. In kind it is cell-based. The following applies: filamentous fungi; more than 50% inhibition of visible growth, 48 h. As for the experimental part: (§1) The various derivates of P17 (brominated and non-brominated) were tested for their ability to inhibit fungal growth of the yeast strains Saccaharomyces cerevisiae sp, Candida albicans (ATCC 10231) and Rodotorula sp., and the filamentous strains Botrytis cinerea 101, Penicillium rogveforti, and Fusarium sp. All strains, except C. albicans, were a gift from Prof. A. Tronsmo (The Norwegian University of Life Sciences, Ås, Norway). The fungi were cultivated on potato dextrose agar, supplemented with 2% glucose, at room temperature. Before antifungal testing, the fungi were dissolved in potato dextrose broth (Difco) at half-strength. Cell concentration was determined and adjusted after counting in a Bürker chamber. The filamentous fungi were filtered through a piece of cotton before counting. An aliquot of 50 μl of fungal spores (final concentration 2×10^5 spores per ml) were inoculated in microtiter plates (96 wells) along with 50 μl peptide solution. Peptides, dissolved in distilled water, were tested at final concentrations (two-fold dilutions) ranging from 50 μM to 0.1 μM. Cultures were grown in the dark (without shaking) and with a moist chamber at 25° C. (37° C. for C. albicans). Growth inhibition was determined microscopically after 48 h of incubation. MIC was determined as the lowest concentration of peptide resulting in 50% inhibition of visible growth.

For another assay, the system named is E. coli (ATCC 25922). The assay is classed as cell-based, Escherichia coli. As for the experimental part:
(§2) The antibacterial activities of the different peptides were determined by continuous monitoring of bacterial growth with a Bioscreen C microbiology reader (Labsystems Oy, Helsinki, Finland). The test was performed in 100-well flat-bottomed honeycomb plates, in which 50 μl of test fractions were incubated with 50 μl of a suspension of an actively growing culture of bacteria diluted in Mueller Hinton medium to a starting concentration of 3×10^4 cells per ml. […] [NT] 13032) and S. aureus (ATCC 9144), were chosen as test bacteria. […] Polymyxin B (Sigma, St.

Assay [1] relates to C. glutamicum (ATCC 13032). The assay is classed as cell-based, Corynebacterium glutamicum. As to the method: as §2
In another assay the test system is Pseudomonas aeruginosa. The assay is classed as cell-based. As to the method:
as §2

Assay [2] concerns Listonella (Vibrio) anguillarum, serotype O2 (FT 1801). The assay is classed as cell-based. As to the method: as §2
A further assay relates to S. aureus (ATCC 9144). The assay is classed as cell-based, Staphylococcus aureus. As to conditions: ATCC 9144. As for the experimental part: as §2
For another assay, the system named is Saccharomyces cerevisiae. As to conditions: 48 h. As for the experimental part: as §1
Another assay has as its system Botrytis cinerea 101. The following applies: 48 h. As to the method:
as §1

Assay [3] has as its system Candida albicans (ATCC 10231). As to conditions: ATCC 10231, 48 h. As to the method: as §1
The next assay deals with L. anguillarum. The assay is classed as cell-based, Listonella (Vibrio) anguillarum. As to the method:
(§3) The Gram-negative bacteria Listonella (Vibrio) anguillarum, serotype O2 (FT 1801, also coded as AL 104/LFI 6004), originally isolated from Atlantic salmon by staff of the Norwegian Veterinary Institute (Oslo, Norway), Escherichia con (ATCC 25922), and the Gram-positive bacteria Staphylococcus aureus (ATCC 9144) and Corynebacterium glutamicum (ATCC 13032) were used as test organisms. All isolates were grown at room temperature in Mueller Hinton Broth (MBB; Difco Laboratories, Detroit, U.S.A).
(§4) The antibacterial activities of the obtained HPLC fractions were determined by continuous monitoring of bacterial growth with a Bioscreen C microbiology reader (Labsystems Oy, Helsinki, Finland). The test was performed in 100-well flat-bottomed honeycomb plates, in which […] of test fractions were incubated with 50 μl of a suspension of an actively growing culture of bacteria diluted to a starting concentration of 5×10^3 cells per well. The growth chamber was maintained at 20° C. during the incubation period. The absorbance was measured at 2 h intervals for 48 h by a turbidometric method with vertical light photometry and a wide band filter (420-580 nm), which is more insensitive to colour change in the sample compared to single wavelength detection. Cecropin P1(0.5 μg/ml) was used as a positive control during these experiments. Antibacterial activity was determined when the optical density (OD) of the growth control (bacteria plus water) reached an absorbance of approximately 0.3. Fractions were regarded as active when the OD was less than 50% of the growth control.
(§5) The polypeptides of the present invention were isolated and subsequently tested for activity. A serial dilution method was employed to examine the antibacterial activity of the peptides. Two Gram-negative bacteria, L. anguillarum and E. coli, and two Gram-positive bacteria, C. glutamicum and S. aureus, were chosen as test bacteria. The polypeptides of the present invention were active against both Gram-positive and Gram-negative bacteria (table 4).

Assay [4] has as its system Salmonella enterica serovar typhimurium (ATCC 14028). Briefly: Bacterial cell viability, lux luminescence and OD600, with or without LPS. The following applies: co-incubation with 2.5 μM Aeromonas salmonicida LPS. In kind it is cell-based. An excerpt:
(§6) To evaluate the effect of antimicrobial peptides on the viability of bacteria in a fast and reliable manner we used the lux CDABE operon from Photorhabdus luminescens as a reporter system in gram negative test bacteria and the modified luxABCDE operon in S. aureus (Vesterlund et al. 2004). Bacterial bioluminescence is directly dependent on metabolic activity, since reduction equivalents are needed to drive light emission. Any form of interruption of bacterial cell integrity or metabolism will therefore be detected as a reduction in light emission.
(§7) For the assay we used S. aureus (RN4220), E. coli K-12 and Salmonella enterica serovar typhimurium (ATCC 14028) transformed with the respective lux-operon containing plasmids (Vesterlund et al. 2004).
(§8) For each experiment a fresh colony was picked from Luria-Bertani plates supplemented with 10 μg/ml of erythromycin in case of S. aureus and with 100 μg/ml of ampicillin in case of E. coli and S. enterica serovar Typhimurium. Each colony was suspended in 5 ml of Müller-Hinton medium with appropriate antibiotics. The culture was incubated over night at 37° C. in a shaking incubator. The next morning 0.5 ml of this culture was transferred to 30 ml fresh MH medium in an Erlenmeyer-flask supplemented with the respective antibiotic. The flask was incubated (200 rpm shaking; 37° C.) until an OD600 of 0.5-0.8 was reached. The culture was then diluted to an OD600 of about 0.02-0.03 before transfer to the 96 well opaque plates with optical bottom (Packard ViewPlate) used for the assay.
The synthesized peptides were dissolved in water and aliquots frozen at −18° C. until use. Twofold dilutions of test peptides (final concentrations ranging from 0.31 to 80 μM) were directly prepared in 96 well microtiter plates in a volume of 10 μl in water. 90 μl is of indicator bacteria in MH medium were added directly to the prepared and pre-warmed (30 minutes at 37° C.) plate before starting the measurement in a Victor multiplate reader (Perkin Elmer) at 37° C. Both OD600 and luminescence in counts per second (cps) were followed over 5 hours in measuring intervals of 5 minutes. The plates where shaken before each measurement (20 sec.; 5 mm orbital shaking; 10 sec waiting). The growth curves and light emission curves were drawn and evaluated to determine the MIC for each indicator strain. The MIC was defined as the concentration of test compound causing more than 50% reduction in bioluminescence (cps) or optical density (OD600) after 5 hours, compared to the growth control. Cecropin P1 was used as positive control. The results (table 14a-b) confirm the results obtained in example 2, showing a pronounced antibacterial effect of the longest peptide fragments. […] The partial peptides P17 HC (1-20), both bromated and unbromated, inhibit growth only in higher concentrations.
A second plate with an otherwise similar setup (as described for the luminescence assay in example 3) was prepared, but with addition of Aeromonas salmonicida LPS to the peptide dilutions before pre-warming. The LPS end concentration in each well was approximately 2.5 μM.

Another assay deals with S. aureus. In kind it is cell-based, Staphylococcus aureus. As to the method: as §3, §4, §5
A further assay deals with C. glutamicum. In kind it is cell-based, Corynebacterium glutamicum. As to the method: as §3, §4, §5
A further assay concerns E. coli K-12. The experiment in a line: Bacterial cell viability, lux luminescence and OD600, with or without LPS. In kind it is cell-based, Escherichia coli. The following applies: co-incubation with 2.5 μM Aeromonas salmonicida LPS.
Source text: as §6, §7, §8
The synthesized peptides were dissolved in water and aliquots frozen at −18° C. until use. Twofold dilutions of test peptides (final concentrations ranging from 0.31 to 80 μM) were directly prepared in 96 well microtiter plates in a volume of 10 μl in water. 90 μl is of indicator bacteria in MH medium were added directly to the prepared and pre-warmed (30 minutes at 37° C.) plate before starting the measurement in a Victor multiplate reader (Perkin Elmer) at 37° C. Both OD600 and luminescence in counts per second (cps) were followed over 5 hours in measuring intervals of 5 minutes. The plates where shaken before each measurement (20 sec.; 5 mm orbital shaking; 10 sec waiting). The growth curves and light emission curves were drawn and evaluated to determine the MIC for each indicator strain. The MIC was defined as the concentration of test compound causing more than 50% reduction in bioluminescence (cps) or optical density (OD600) after 5 hours, compared to the growth control. Cecropin P1 was used as positive control. […]
A second plate with an otherwise similar setup (as described for the luminescence assay in example 3) was prepared, but with addition of Aeromonas salmonicida LPS to the peptide dilutions before pre-warming. […]

The test system of a further assay is E. coli. In kind it is cell-based, Escherichia coli. As to the method:
as §3, §4, §5

Turning to DLRGACAAAHAL [P17 LC], in the assay on Penicillum rogveforti, the “Minimal inhibitory concentration (MIC), Penicillum rogveforti” value is >100 µM. In the assay on E. coli (ATCC 25922), the “Minimal inhibitory concentration, E. coli” value is >100 µM. For the same sequence, the “Minimal inhibitory concentration, C. glutamicum” value in assay [1] was >100 µM. Besides, the “Minimal inhibitory concentration, P. aeruginosa” value in the assay on Pseudomonas aeruginosa was >100 µM. For the same sequence, the “Minimal inhibitory concentration, L. anguillarum” value in assay [2] is >100 µM. For the same sequence, in the assay with S. aureus (ATCC 9144), the “Minimal inhibitory concentration, S. aureus” value is >100 µM. For the same sequence, the “Minimal inhibitory concentration (MIC), Saccharomyces cerevisiae” value in the assay on Saccharomyces cerevisiae is >100 µM. In the assay with Botrytis cinerea 101, the “Minimal inhibitory concentration (MIC), Botrytis cinerea” value is >100 µM. In [3], the “Minimal inhibitory concentration (MIC), Candida albicans” value was >100 µM.
For the sequence “SWLSKTAKKLENSAKKRISEGIAIAIQGGPR [Cecropin P1, reference compound]”, the “Minimal inhibitory concentration (MIC), L. anguillarum” value in the assay with L. anguillarum worked out at 1.2 µM. Further, the “MIC, more than 50% reduction in optical density, S. enterica, P + LPS” value in assay [4] (OD600, 5 hours) amounted to 10 µM. Moreover, the “MIC, more than 50% reduction in luminescence, S. enterica, P + LPS” value in assay [4] (luminescence (cps), 5 hours) stood at 10 µM. In the assay on S. aureus, the “Minimal inhibitory concentration (MIC), S. aureus” value amounted to 12.5 µM. The “Minimal inhibitory concentration (MIC), C. glutamicum” value in the assay with C. glutamicum worked out at 1.6 µM. In addition, the “MIC, more than 50% reduction in optical density, E. coli, P + LPS” value in the assay on E. coli K-12 (OD600, 5 hours) was determined as 20 µM. For the same sequence, the “MIC, more than 50% reduction in luminescence, E. coli, P + LPS” value with E. coli K-12 (luminescence (cps), 5 hours) was found to be 20 µM. For the same sequence, the “Minimal inhibitory concentration (MIC), E. coli” value with E. coli came to 1.2 µM.
